According to PubChem BioAssay (NCI):
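Interpolation was linear, between the two tested concentrations surrounding the appropriate level; five concentrations were tested over 48 hours in 96-well plates. TGI denotes the concentration required for complete inhibition of growth.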

How the values were obtained:
Experiment in all cases: growth of human tumour cells (NCI), 48 h
PC-3 prostate = system: PC-3 prostate
UACC-62 melanoma = system: UACC-62 melanoma
HCT-116 colon = system: HCT-116 colon
HCC-2998 colon = system: HCC-2998 colon
UO-31 renal = system: UO-31 renal
MDA-MB-231 breast = system: MDA-MB-231 breast
K-562 leukemia = system: K-562 leukemia
EKVX NSCLC = system: EKVX NSCLC
COLO 205 colon = system: COLO 205 colon
SK-OV-3 ovarian = system: SK-OV-3 ovarian
DU-145 prostate = system: DU-145 prostate
OVCAR-8 ovarian = system: OVCAR-8 ovarian
OVCAR-5 ovarian = system: OVCAR-5 ovarian
T-47D breast = system: T-47D breast
SNB-75 CNS = system: SNB-75 CNS
U251 CNS = system: U251 CNS
MALME-3M melanoma = system: MALME-3M melanoma
HOP-62 NSCLC = system: HOP-62 NSCLC
ACHN renal = system: ACHN renal
CAKI-1 renal = system: CAKI-1 renal
OVCAR-3 ovarian = system: OVCAR-3 ovarian
LOX IMVI melanoma = system: LOX IMVI melanoma
HOP-92 NSCLC = system: HOP-92 NSCLC
BT-549 breast = system: BT-549 breast
MDA-MB-435 = system: MDA-MB-435
MDA-N = system: MDA-N
IGROV1 ovarian = system: IGROV1 ovarian
NCI-H522 lung = system: NCI-H522 lung
MCF7 breast = system: MCF7 breast
UACC-257 melanoma = system: UACC-257 melanoma
786-0 renal = system: 786-0 renal
OVCAR-4 ovarian = system: OVCAR-4 ovarian
RXF 393 renal = system: RXF 393 renal
SF-268 CNS = system: SF-268 CNS
SK-MEL-5 melanoma = system: SK-MEL-5 melanoma
SR leukemia = system: SR leukemia
KM12 colon = system: KM12 colon
SK-MEL-2 melanoma = system: SK-MEL-2 melanoma
NCI-H460 lung = system: NCI-H460 lung
NCI-H23 lung = system: NCI-H23 lung
CCRF-CEM leukemia = system: CCRF-CEM leukemia
SF-295 CNS = system: SF-295 CNS
SN12C renal = system: SN12C renal
HT29 colon = system: HT29 colon
M14 melanoma = system: M14 melanoma
SNB-19 CNS = system: SNB-19 CNS
HS 578T breast = system: HS 578T breast
RPMI-8226 leukemia = system: RPMI-8226 leukemia
HCT-15 colon = system: HCT-15 colon
SW-620 colon = system: SW-620 colon
NCI-H226 lung = system: NCI-H226 lung
SF-539 CNS = system: SF-539 CNS
A549 NSCLC = system: A549 NSCLC
MOLT-4 leukemia = system: MOLT-4 leukemia
SK-MEL-28 melanoma = system: SK-MEL-28 melanoma
TK-10 renal = system: TK-10 renal
NCI/ADR-RES ovarian = system: NCI/ADR-RES ovarian
HL-60(TB) leukemia = system: HL-60(TB) leukemia
A498 renal = system: A498 renal

`CC1Cc2c(cc(N)nc2Br)NC1=O` (stereo not given) gave a TGI (PC-3 prostate) greater than 100 µM, a TGI (UACC-62 melanoma) greater than 100 µM and a TGI (HCT-116 colon) greater than 100 µM. The TGI (HCC-2998 colon) was greater than 100 µM, the TGI (UO-31 renal) was greater than 100 µM and the TGI (MDA-MB-231 breast) was greater than 100 µM. The TGI (K-562 leukemia) was greater than 100 µM, the TGI (EKVX NSCLC) was greater than 100 µM and the TGI (COLO 205 colon) was greater than 100 µM. For the same compound, the TGI (SK-OV-3 ovarian) was greater than 100 µM, the TGI (DU-145 prostate) was greater than 100 µM and the TGI (OVCAR-8 ovarian) was greater than 100 µM. For the same compound, the TGI (OVCAR-5 ovarian) was greater than 100 µM, the TGI (T-47D breast) was greater than 100 µM and the TGI (SNB-75 CNS) was greater than 100 µM. It also gave a TGI (U251 CNS) greater than 100 µM, a TGI (MALME-3M melanoma) greater than 100 µM and a TGI (HOP-62 NSCLC) greater than 100 µM. The TGI (ACHN renal) was greater than 100 µM, the TGI (CAKI-1 renal) was greater than 100 µM and the TGI (OVCAR-3 ovarian) was greater than 100 µM. It also gave a TGI (LOX IMVI melanoma) greater than 100 µM, a TGI (HOP-92 NSCLC) greater than 100 µM and a TGI (BT-549 breast) greater than 100 µM. The TGI (MDA-MB-435) was greater than 100 µM, the TGI (MDA-N) was greater than 100 µM and the TGI (IGROV1 ovarian) was greater than 100 µM. It also gave a TGI (NCI-H522 lung) greater than 100 µM, a TGI (MCF7 breast) greater than 100 µM and a TGI (UACC-257 melanoma) greater than 100 µM. For the same compound, the TGI (786-0 renal) was greater than 100 µM, the TGI (OVCAR-4 ovarian) was greater than 100 µM and the TGI (RXF 393 renal) was greater than 100 µM. The TGI (SF-268 CNS) was greater than 100 µM, the TGI (SK-MEL-5 melanoma) was greater than 100 µM and the TGI (SR leukemia) was greater than 100 µM. For the same compound, the TGI (KM12 colon) was greater than 100 µM, the TGI (SK-MEL-2 melanoma) was greater than 100 µM and the TGI (NCI-H460 lung) was greater than 100 µM. The TGI (NCI-H23 lung) was greater than 100 µM, the TGI (CCRF-CEM leukemia) was greater than 100 µM and the TGI (SF-295 CNS) was greater than 100 µM. The TGI (SN12C renal) was greater than 100 µM, the TGI (HT29 colon) was greater than 100 µM and the TGI (M14 melanoma) was greater than 100 µM. For the same compound, the TGI (SNB-19 CNS) was greater than 100 µM, the TGI (HS 578T breast) was greater than 100 µM and the TGI (RPMI-8226 leukemia) was greater than 100 µM. For the same compound, the TGI (HCT-15 colon) was greater than 100 µM, the TGI (SW-620 colon) was greater than 100 µM and the TGI (NCI-H226 lung) was greater than 100 µM. For the same compound, the TGI (SF-539 CNS) was greater than 100 µM, the TGI (A549 NSCLC) was greater than 100 µM and the TGI (MOLT-4 leukemia) was greater than 100 µM. The TGI (SK-MEL-28 melanoma) was greater than 100 µM, the TGI (TK-10 renal) was greater than 100 µM and the TGI (NCI/ADR-RES ovarian) was greater than 100 µM.
`CC(=O)NC1C(OCc2ccccc2)OC(CO)C(O)C1OCC(=O)N[C@@H](C)C(=O)N[C@H](CCC(=O)NCCCCNc1c2ccccc2nc2cccc([N+](=O)[O-])c12)C(N)=O` (stereo not given in full) gave a TGI (HL-60(TB) leukemia) greater than 100 µM, a TGI (PC-3 prostate) of 9.44 µM and a TGI (UACC-62 melanoma) of 3.13 µM. The TGI (HCT-116 colon) was 10 µM, the TGI (HCC-2998 colon) was 2.91 µM and the TGI (UO-31 renal) was 6.62 µM. It also gave a TGI (MDA-MB-231 breast) of 9.56 µM, a TGI (K-562 leukemia) greater than 100 µM and a TGI (EKVX NSCLC) of 8.97 µM. For the same compound, the TGI (COLO 205 colon) was 3.33 µM, the TGI (SK-OV-3 ovarian) was greater than 71.8 µM and the TGI (DU-145 prostate) was 12.4 µM. It also gave a TGI (OVCAR-8 ovarian) of 5.03 µM, a TGI (OVCAR-5 ovarian) greater than 27.5 µM and a TGI (T-47D breast) of 9.51 µM. The TGI (SNB-75 CNS) was 4.69 µM, the TGI (U251 CNS) was 10.9 µM and the TGI (MALME-3M melanoma) was 3.68 µM. The TGI (HOP-62 NSCLC) was greater than 52.2 µM, the TGI (ACHN renal) was 11.3 µM and the TGI (CAKI-1 renal) was greater than 23.2 µM. It also gave a TGI (OVCAR-3 ovarian) greater than 30.4 µM, a TGI (LOX IMVI melanoma) of 11.5 µM and a TGI (HOP-92 NSCLC) of 4.45 µM. It also gave a TGI (BT-549 breast) of 13.1 µM, a TGI (MDA-MB-435) of 3.96 µM and a TGI (MDA-N) of 4.15 µM. It also gave a TGI (IGROV1 ovarian) of 4.74 µM, a TGI (NCI-H522 lung) of 0.594 µM and a TGI (MCF7 breast) of 32 µM. For the same compound, the TGI (UACC-257 melanoma) was 5.36 µM, the TGI (786-0 renal) was 10.1 µM and the TGI (OVCAR-4 ovarian) was 2.85 µM. For the same compound, the TGI (SF-268 CNS) was 14.5 µM, the TGI (SK-MEL-5 melanoma) was 2.58 µM and the TGI (SR leukemia) was greater than 100 µM. It also gave a TGI (KM12 colon) of 5.32 µM, a TGI (SK-MEL-2 melanoma) of 5 µM and a TGI (NCI-H460 lung) of 3.36 µM. For the same compound, the TGI (NCI-H23 lung) was 2.54 µM, the TGI (CCRF-CEM leukemia) was greater than 100 µM and the TGI (A498 renal) was 5.9 µM. The TGI (SF-295 CNS) was 37.3 µM, the TGI (SN12C renal) was 14.5 µM and the TGI (HT29 colon) was 7.86 µM. For the same compound, the TGI (M14 melanoma) was greater than 22.2 µM, the TGI (SNB-19 CNS) was 24 µM and the TGI (HS 578T breast) was greater than 31.3 µM. It also gave a TGI (RPMI-8226 leukemia) of 8.88 µM, a TGI (HCT-15 colon) of 14.7 µM and a TGI (SW-620 colon) of 97 µM. It also gave a TGI (NCI-H226 lung) of 7.49 µM, a TGI (SF-539 CNS) of 6 µM and a TGI (A549 NSCLC) greater than 100 µM. For the same compound, the TGI (MOLT-4 leukemia) was greater than 100 µM, the TGI (SK-MEL-28 melanoma) was 23.4 µM and the TGI (TK-10 renal) was 16.7 µM. The TGI (NCI/ADR-RES ovarian) was greater than 100 µM.
